In US10124065B2, “Lipids and lipid compositions for the delivery of active agents” (Novartis AG, priority 2013, dated 2018):
Where two headings read alike, the source gives them in different places.

Legend:
[1] = pKa measurement of cationic lipid (TNS fluorescence); assay type: physicochemical; details: pKa of the cationic lipid of formula (I), Table 4
Procedure: Unless indicated otherwise, all pKa's referred to herein were measured at standard temperature and pressure. Also, unless otherwise indicated, all references to pKa are references to pKa measured using the following technique. 2 mM solution of lipid in ethanol was prepared by weighing the lipid and then dissolving it in ethanol. 0.3 mM solution of fluorescent probe TNS in ethanol:methanol 9:1 was prepared by first making 3 mM solution of TNS in methanol and then diluting to 0.3 mM with ethanol. An aqueous buffer containing 200 mM sodium phosphate dibasic and 100 mM citric acid was prepared. […] Using the Hamilton Microlab Star high throughput liquid handler and Hamilton run control software Software, 7.5 uL of probe/lipid mix were added to 242.5 uL of buffer in a 1 mL 96 well plate (model NUNC 260252, […] Nunc International). This was done with all twelve buffers. After mixing in 1 mL 96 well plate, 100 uL of each probe/lipid/buffer mixture was transferred to a 250 uL black with clear bottom 96 well plate (model COSTAR 3904, Corning). The fluorescence measurements are carried out on the SpectraMax M5 spectrophotometer using software SoftMax pro 5.2 and following parameters: After the measurement, the background fluorescence value of an empty well on the 96 well plate was subtracted from each probe/lipid/buffer mixture. The fluorescence intensity values were then normalized to the value at lowest pH. The normalized fluorescence intensity vs. pH chart was then plotted in the Microsoft Excel software. The twelve points were connected with a smooth line. The point on the line at which the normalized fluorescence intensity was equal to 0.5 was found. […] The pKa determined using this method is precise to about 0.1 pKa units.

[2] = Particle size of lipid nanoparticle (dynamic light scattering, Malvern Zetasizer); assay type: physicochemical
Source text: The lipid nanoparticles have a size of about 1 to about 2,500 nm, about 1 to about 1,500 nm, about 1 to about 1,000 nm, in a sub-embodiment about 50 to about 600 nm, in a sub-embodiment about 50 to about 400 nm, in a sub-embodiment about 50 to about 250 nm, and in a sub-embodiment about 50 to about 150 nm. Unless indicated otherwise, all sizes referred to herein are the average sizes (diameters) of the fully formed nanoparticle, as measured by dynamic light scattering on a Malvern Zetasizer. The nanoparticle sample is diluted in phosphate buffered saline (PBS) so that the count rate is approximately 200-400 kcts. The data is presented as a weighted average of the intensity measure. Unless indicated otherwise, all particle size measurements referred to in Tables 4 and 5 are the Z-average particle size of the fully formed nanoparticle, as measured by dynamic light scattering on a Malvern Zetasizer. The nanoparticle sample was diluted in phosphate buffered saline (PBS) so that the count rate is approximately 200-400 kcts.

[3] = Polydispersity index (PDI) of lipid nanoparticle (dynamic light scattering); assay type: physicochemical
Procedure: Unless indicated otherwise, all PDIs referred to herein are the PDI of the fully formed nanoparticle, as measured by dynamic light scattering on a Malvern Zetasizer. The nanoparticle sample was diluted in phosphate buffered saline (PBS) so that the count rate was approximately 200-400 kcts. The data is presented in Tables 4 and 5 as a weighted average of the intensity measure.

[4] = tested on: plasma Factor VII enzyme activity; assay: Mouse Factor VII dosing / Factor VII Activity Assay; assay type: in vivo; details: percent knock down of plasma Factor VII activity, CD-1 mice, 48 h; for KD FVII 0.03 mg/kg: single IV dose 0.03 mg/kg; for KD FVII 0.3 mg/kg: single IV dose 0.3 mg/kg
In short: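 Female CD-1 mice (~25 g) received a single IV tail-vein dose of lipid-nanoparticle-formulated Factor VII siRNA (0.3 or 0.03 mg/kg). Plasma taken ~48 h later; FVII activity measured chromogenically against vehicle-control plasma standard curve, reported as % knockdown.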

[5] = tested on: respiratory syncytial virus F protein; assay: Immunization studies, anti-RSV-F titers; assay type: in vivo; details: anti-RSV-F titer, BALB/c, course A = days 0 & 21, liposomes with 0.1 μg vA317 replicon (naked: 1 μg); for 2wp1 pool 1 / 2wp1 pool 2: 2 weeks after first dose; for 2wp2 pool 1 / 2wp2 pool 2: 2 weeks after second dose
Procedure: BALB/c were immunized with liposomes comprising DSPC, cholesterol, and various lipids of the invention (or, for comparison, the cationic lipid 1,2-dilinoleyloxy-N,N-dimethyl-3-aminopropane or ‘DLinDMA’). The liposomes encapsulated 0.1 μg of “vA317” self-replicating RNA replicon which encodes respiratory syncytial virus F protein (see WO2012/031043). […] Doses were given either on days 0 & 21 or days 0 & 42. Immune responses were assessed 2 weeks after each dose (2wp1, 2wp2), and in some cases also at 4 weeks after the second dose (4wp2).

[6] = FVII siRNA LNP, Chol/DSPC/PEG-DMG, molar ratio 45/44/9/2, Z-average
[7] = FVII siRNA LNP, Chol/DSPC/PEG-DMG, molar ratio 45/44/9/2
[8] = LNP Chol/DSPC/PEG-DMG 45/44/9/2
[9] = FVII siRNA LNP, Chol/DSPC/S010, molar ratio 45/44/9/2, Z-average
[10] = PLK1-424 siRNA LNP, Chol/DSPC/S011 45/44/9/2
[11] = FVII siRNA LNP, Chol/DSPC/S010, molar ratio 45/44/9/2

| SMILES | pKa ([1]; probe TNS, read-out: pKa) | Size (nm) [2, 6] [nm] | PDI [3, 7] | KD FVII 0.03 mg/kg [4, 8] [%] | pKa ([1]; listed as Ex. 2) | Size (nm) [2, 9] [nm] | Size (nm) [2, 10] [nm] | PDI [3, 11] | PDI [3, 10] | KD FVII 0.03 mg/kg ([4]; LNP Chol/DSPC/S010 45/44/9/2) [%] | KD FVII 0.3 mg/kg [4, 8] [%] | 2wp1 pool 1 [5] | 2wp1 pool 2 [5] | 2wp2 pool 1 [5] | 2wp2 pool 2 [5] | 4wp2 pool 1 ([5]; 4 weeks after second dose) | 4wp2 pool 2 ([5]; 4 weeks after second dose) |
| --- | --- | --- | --- | --- | --- | --- | --- | --- | --- | --- | --- | --- | --- | --- | --- | --- | --- |
| CCCCCCCCOC(CCCOc1cc(CN(C)C)cc(OCCCC(OCCCCCCCC)OCCCCCCCC)c1)OCCCCCCCC [Ex. 126, 1-(3,5-bis(4,4-bis(octyloxy)butoxy)phenyl)-N,N-dimethylmethanamine] | 5.54 | 95.2 | 0.075 | 31.7 |  |  |  |  |  |  |  |  |  |  |  |  |  |
| CCCCC/C=C\C/C=C\CCCCCCCCOc1cc(CN(C)C)cc(OCCCCCCCC/C=C\C/C=C\CCCCC)c1 [Example 2, 1-(3,5-bis((9Z,12Z)-octadeca-9,12-dien-1-yloxy)phenyl)-N,N-dimethylmethanamine] |  | 97.4 | 0.04 |  | 5.46 | 92.85 | 88.19 | 0.067 | 0.1 | 55 | 95.5 | 217 | 259 | 12785 | 8232 |  |  |
| CCCCC/C=C\C/C=C\CCCCCCCC(=O)Oc1cc(COC(=O)CCN(C)C)cc(OC(=O)CCCCCCC/C=C\C/C=C\CCCCC)c1 [Example 26, (9Z,9′Z,12Z,12′Z)-5-(((3-(dimethylamino)propanoyl)oxy)methyl)-1,3-phenylene bis(octadeca-9,12-dienoate)] | 6.45 | 104.3 | 0.04 |  |  | 121.6 |  | 0.046 |  |  | 58.1 | 4 | 4 | 10 | 10 | 10 | 10 |
| CCCCCCC(CCCCCC)CCCCCC(=O)OCCCCOc1cc(CN(C)C)cc(OCCCCOC(=O)CCCCCC(CCCCCC)CCCCCC)c1 [Ex. 113, ((5-((dimethylamino)methyl)-1,3-phenylene)bis(oxy))bis(butane-4,1-diyl)bis(7-hexyltridecanoate)] | 6.03 |  |  | 57.6 |  |  |  |  |  |  |  |  |  |  |  |  |  |
| CCCCCC(CCCCC)CCCCCCCC(=O)OCCCCOc1cc(CN(C)C)cc(OCCCCOC(=O)CCCCCCCC(CCCCC)CCCCC)c1 [Ex. 114, ((5-((dimethylamino)methyl)-1,3-phenylene)bis(oxy))bis(butane-4,1-diyl)bis(9-pentyltetradecanoate)] | 5.97 |  |  | 44 |  |  |  |  |  |  |  |  |  |  |  |  |  |
